# Results as given in patent US20230123889A1, “METHOD FOR DEGRADING BENZO(A)PYRENE WITH A HALOPHILIC BACTERIUM STRAIN OF STAPHYLOCOCCUS HAEMOLITICUS” (KING FAHD UNIVERSITY OF PETROLEUM AND MINERALS, priority 2021, published 2023).
# Marks after values point to notes of the source that are not given here.
# Experiments:
# Format in all cases: cell-based
# [1] = tested on: Staphylococcus haemoliticus 10SBZ1A strain; assay: Bacterial growth assessment (doubling time, CFU/ml) in the presence of BZP and various hydrocarbon substrates as carbon source; details: for strain dt in the presence of substrate (FIG. 3): substrate as carbon source; for Doubling time (dt, h): strain growing on BaP
# Description: Bacterial growth assessment in the presence of BZP and various hydrocarbon molecules: effect of pH and salinity. To initiate these experiments, bacteria were pre-cultured in an LB rich medium, and around 5×10^5 colony forming units (CFU) of these bacteria were added to 50 ml BH medium containing 100 μmol BZP, unless otherwise stated. Non-polar substrates pyrene, phenanthrene, naphthalene and anthracene were dissolved in dimethyl sulfoxide (DMSO) [0.1 g/ml], while the water-soluble substrates SALC and CATC were dissolved directly in BH medium. The aliphatic compounds were directly added to the medium. […] Growth was monitored as a measure of CFU/ml.
# Bacterial doubling time (dt) was calculated by fitting growth curves data points into […] equation, where Q is the bacterial CFU ml^−1 at time t, Qo is the initial bacterial count in the culture, and k is the growth rate. The growth rate (k) was then used to compute dt values according to the equation: dt=ln(2)/k (in days). Values were calculated with Microsoft Excel software (Version). All experiments were carried out in duplicate.
# [2] = tested on: Staphylococcus haemoliticus 10SBZ1A strain; assay: Quantification of BZP and substrate utilization in bacterial culture (GC-MS); details: control without bacteria
# Description: Quantification of BZP and substrate utilization. The remaining BZP was quantified in a bacterial culture of 100 ml containing 20 μmol BZP for 18 days, according to the protocol reported by and incorporated by reference to Budiyanto, F, et al. (2017). Characterization of halophilic bacteria capable of efficiently biodegrading the high molecular weight polycyclic aromatic hydrocarbon pyrene. Environmental Engineering Science. June 2018.616-626.
# A sample corresponding to one culture flask of 100 ml, was collected every 5 days and subjected to extraction as follows. The samples were sonicated for 30 min and then extracted twice with ethyl acetate (50 ml). The combined organic layers were dehydrated with calcium chloride and then dried under vacuum. Samples were re-dissolved in 500 μl of chloroform prior to analysis by gas chromatography-mass spectrometry (GC-MS). […] Values of quantified BZP were fitted in the exponential decay equation, Qt=Qoe^−kt to obtain the biodegradation rate constant (k); see Lu, J, C Guo, et al. (2014). […]
# The mixture was then diluted with 1.0 ml of chloroform prior to its analysis by GC-MS. […] Values of quantified BZP were fitted in the exponential decay equation, Qt=Qoe^−kt to obtain the biodegradation rate constant (k); see Lu et al., International Biodeterioration & Biodegradation 87: 75-80.
# [3] = tested on: Staphylococcus haemoliticus 10SBZ1A strain; assay: Bacterial growth assessment (doubling time, CFU/ml) in the presence of BZP and various hydrocarbon substrates as carbon source
smiles,measurement,setting,value
OCC(O)CO [glycerol],strain dt in the presence of substrate (FIG. 3),[1],around 11 hours
"c1ccc2c(c1)cc1ccc3cccc4ccc2c1c34 [BZP, benzo(a)pyrene]",abiotic degradation,[2],Around 20%
same,growth,[1]; 0% NaCl,No growth
same,doubling time,[1]; 4-200 μmol of BZP as sole source of carbon,2 to 10 h
same,growth,[1]; 20% NaCl,No growth
same,maximum count,[1]; BZP 20 μmol.1^−1,> 10^9 CFU ml^−1
same,time at which the maximum growth was achieved,[1]; BZP 400 μmol.1^−1,15 days
same,dt values,[1]; BZP 1 to 100 μmol.1^1,15 to 20 h
same,maximum count,[1]; BZP 5 to 20 μmol.1^−1,10^7-10^8 CFU/ml
same,time to reach maximum growth,[1]; BZP 5 to 20 μmol.1^−1,6 to 8 days
same,dt values relative to those at 1 to 100 μmol.1^1,[1]; BZP 200 and 400 μmol.1^−1,almost doubled
same,"Doubling time (dt, h)",[1]; Salinity 5% NaCl,44 ± 7 h
same,"Doubling time (dt, h)","[1]; Salinity 5% NaCl, listed as benzo(a)pyrene",46.8 ± 7.4 h
same,"Doubling time (dt, h)",[1]; Salinity 10% NaCl,21 ± 1 h
same,"Doubling time (dt, h)","[1]; Salinity 10% NaCl, listed as benzo(a)pyrene",21.5 ± 1.0 h
same,"Doubling time (dt, h)",[1]; Salinity 15% NaCl,156 ± 73 h
same,"Doubling time (dt, h)","[1]; Salinity 15% NaCl, listed as benzo(a)pyrene",156 ± 74 h
same,"Doubling time (dt, h)",[1]; Temperature 35° C.,28.5 ± 2.4^b h
same,"Doubling time (dt, h)",[1]; Temperature 37° C.,21.5 ± 1.0^b h
same,"Doubling time (dt, h)",[1]; Temperature 40° C.,24.5 ± 1.0 h
same,growth at other pH values,"[1]; pH 5, 6, 8 and 9",slow
same,dt values,[1]; pH 7,21.49±0.98
same,"Doubling time (dt, h)",[1]; pH 7,21.5 ± 1.0 h
same,strain dt in the presence of substrate (FIG. 3),[1],around 42 h
same,"Doubling time (dt, h)","[3]; Temperature 37° C., strain growing on BaP",21+1 h
same,range of dt,"[3]; temperatures 35, 37, 40° C.",21 to 29 h
c1ccc2cc3ccccc3cc2c1 [anthracene],strain dt in the presence of substrate (FIG. 3),[1],30 to 33 h
c1cc2ccc3cccc4ccc(c1)c2c34 [pyrene],strain dt in the presence of substrate (FIG. 3),[1],similar
